This assay relates to Human cord blood-derived CD34+ cells transplanted in NSG mice. Nature of the assay: Transplantation of transduced human HSPC in NSG mice. Type of assay: in vivo, NOD-SCID-IL2Rg−/− (NSG) mice. As to the method: NOD-SCID-IL2Rg−/− (NSG) mice were purchased from Jackson laboratory. All animal procedures were performed according to protocols approved by the Animal Care and Use Committee of the Ospedale San Raffaele (IACUC 661) and communicated to the Ministry of Health and local authorities according to Italian law. […] After transduction, 1.3×10^5 cells were infused into the tail vein of sublethally irradiated 10-week-old NSG mice (radiation dose: 200 cGy for mice weighing 18-25 g and 220 cGy for mice above 25 g of weight). Transduced and untransduced cells were also cultured in vitro for 14 days for further analysis. In vitro cultured cells and BM cells isolated from transplanted mice at the time of sacrifice were then used to quantify the VCN by qPCR.
For each mouse, 250 μL of peripheral blood were added to 15 μL of PBS containing 45 mg/mL EDTA. For immunostaining, a known volume of whole blood (100 μL) was first incubated with anti-human FcγIII/II receptor (Cd16/Cd32) blocking antibodies for 15 min at 4° C. and then incubated in the presence of monoclonal antibodies (for antibodies, see Table 1) for 20 min at 4° C. Erythrocytes were removed by lysis with the TQ-Prep workstation (Beckman-Coulter) in the presence of an equal volume of FBS (100 μL) to protect white blood cells.
BM cells were obtained by flushing the femurs in PBS 2% FBS solution. Cells (1×10^6 cells) were washed, resuspended in 100 μL of PBS containing 2% FBS, and incubated with anti-human receptor (Cd16/Cd32) blocking antibodies for 15 min at 4° C. Staining was then performed with monoclonal antibodies (for antibodies, see Table 1) for 20 min at 4° C. Cells were washed and finally resuspended in PBS containing 2% FBS.
Spleens were first smashed and the resulting cell suspension was passed through 40 μm nylon filter and washed in cold phosphate buffered saline (PBS) containing 2 mM EDTA and 0.5% bovine serum albumin (BSA). Cells were incubated with anti-human receptor (Cd16/Cd32) blocking antibodies for 15 min at 4° C. and then stained with anti-human monoclonal antibodies (for antibodies, see Table 1) for 20 min at 4° C. Cells were finally washed and resuspended in PBS containing 2% FBS.

Data on one compound can be found in patent US10391201B2, “Gene therapy” (Ospedale San Raffaele S.r.l., priority 2014, dated 2019).

Structures are written as SMILES.

Regarding `CO[C@H]1C[C@@H]2CC[C@@H](C)[C@@](O)(O2)C(=O)C(=O)N2CCCC[C@H]2C(=O)O[C@H]([C@H](C)C[C@@H]2CC[C@@H](O)[C@H](OC)C2)CC(=O)[C@H](C)/C=C(\C)[C@@H](O)[C@@H](OC)C(=O)[C@H](C)C[C@H](C)/C=C/C=C/C=C/1C` [rapamycin, Rapamycin], the “overall percentage of GFP+ cells in the spleen” value (20 weeks post-transplant (FIG. 22H), DMSO 49.0±5) came to 80.8±1%. The “GFP+/hCD45+ cells in peripheral blood” value (NSG mice, 11 weeks after transplant (FIG. 22C), DMSO 48±6) worked out at 78±2%. Also, the “VCN in the BM cells” value (NSG mice, 20 weeks post-transplant, DMSO 0.9±0.2) amounted to 3.6±0.4. Also, the “levels of engraftment in the BM with respect to controls (in words)” value (NSG mice, 20 weeks post-transplant, p<0.047 v. DMSO) is “modest but statistically significant increase”.
